According to ChEMBL document CHEMBL1909046, “DrugMatrix in vitro pharmacology data”:
*1 amine or outer side, *2 acyl side, *3 side chain or, on linkers, in order; H or OH if unused. Where a SMILES comes first, the peptide text is derived from it. Bridges are numbered along the chain shown (N, C = ends). Roman numbers before positions name the chains, in order. [ ]: non-standard residue; d: D form. Actinocin(1to9) = Cc1c2oc3c(C)ccc(C(=O)[*:2])c3nc-2c(C(=O)[*:1])c(N)c1=O; NMeV = CN[C@H](C(=O)O)C(C)C; Sar = CNCC(=O)O

Tests used:
[1] = biological target: T1, Alpha-1A adrenergic receptor (Rattus norvegicus, UniProt P43140); assay: DRUGMATRIX: Alpha-1A adrenergic receptor radioligand binding (ligand: prazosin); type: cell membranes, Wistar, Submaxillary gland, Membrane; conditions: Not Active = under 50% inhibition at 10 µM; for Ki: read-out: Ki
T1 sequence (P43140 whole entry): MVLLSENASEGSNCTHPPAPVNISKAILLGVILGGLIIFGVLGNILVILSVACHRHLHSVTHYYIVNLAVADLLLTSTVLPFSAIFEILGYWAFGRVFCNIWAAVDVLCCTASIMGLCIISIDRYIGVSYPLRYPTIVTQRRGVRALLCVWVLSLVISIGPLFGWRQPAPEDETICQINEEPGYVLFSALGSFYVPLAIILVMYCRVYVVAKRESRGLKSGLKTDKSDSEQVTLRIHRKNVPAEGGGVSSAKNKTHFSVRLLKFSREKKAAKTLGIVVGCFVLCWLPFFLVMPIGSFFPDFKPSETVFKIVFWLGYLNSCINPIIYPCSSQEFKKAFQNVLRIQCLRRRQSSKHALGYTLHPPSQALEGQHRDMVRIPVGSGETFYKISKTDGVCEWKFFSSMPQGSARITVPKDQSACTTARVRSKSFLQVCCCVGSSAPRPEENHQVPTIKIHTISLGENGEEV

[2] = biological target: Beta-2 adrenergic receptor (Homo sapiens, UniProt P07550); assay: DRUGMATRIX: Adrenergic beta2 radioligand binding (ligand: [3H] CGP-12177); type: cell membranes, Membrane; conditions: cho; Not Active = under 50% inhibition at 10 µM
[3] = biological target: Aldo-keto reductase family 1 member B1 (Rattus norvegicus, UniProt P07943); assay: biochemical; type: tissue-based, Lens of camera-type eye;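 also: inhibition of aldose reductase enzyme activity, measured with DL-glyceraldehyde as the substrate; in other assays of this panel Not Active means under 50% inhibition at 10 µM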
[4] = biological target: T2, C-X-C chemokine receptor type 1 (Homo sapiens, UniProt P25024); also: in other assays of this panel Not Active means under 50% inhibition at 10 µM
T2 sequence (P25024 whole entry): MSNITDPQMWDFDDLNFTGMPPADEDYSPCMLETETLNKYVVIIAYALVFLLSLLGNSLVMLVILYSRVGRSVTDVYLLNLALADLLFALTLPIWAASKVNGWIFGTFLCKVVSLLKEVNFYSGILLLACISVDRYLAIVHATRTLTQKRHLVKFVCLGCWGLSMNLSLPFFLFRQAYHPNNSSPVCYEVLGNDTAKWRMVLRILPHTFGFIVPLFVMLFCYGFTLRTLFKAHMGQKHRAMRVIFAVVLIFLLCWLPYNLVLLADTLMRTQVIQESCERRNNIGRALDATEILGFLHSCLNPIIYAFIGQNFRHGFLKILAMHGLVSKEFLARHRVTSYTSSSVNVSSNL

[5] = DRUGMATRIX: Glutamate, NMDA, Agonism radioligand binding (ligand: [3H] CGP-39653); type: cell membranes, Rattus norvegicus, Wistar, Cerebral cortex, Membrane; conditions: Not Active = under 50% inhibition at 10 µM
Histamine H2 receptor = Histamine H2 receptor (Homo sapiens, UniProt P25021); type: cell membranes, CHO-K1, Membrane; conditions: cho-k1; also: in other assays of this panel Not Active means under 50% inhibition at 10 µM
Melanocortin receptor 4 = Melanocortin receptor 4 (Homo sapiens, UniProt P32245); type: cell membranes, HEK293, Membrane; conditions: hek293; also: in other assays of this panel Not Active means under 50% inhibition at 10 µM
Melanocortin receptor 4, sequence (P32245 whole entry): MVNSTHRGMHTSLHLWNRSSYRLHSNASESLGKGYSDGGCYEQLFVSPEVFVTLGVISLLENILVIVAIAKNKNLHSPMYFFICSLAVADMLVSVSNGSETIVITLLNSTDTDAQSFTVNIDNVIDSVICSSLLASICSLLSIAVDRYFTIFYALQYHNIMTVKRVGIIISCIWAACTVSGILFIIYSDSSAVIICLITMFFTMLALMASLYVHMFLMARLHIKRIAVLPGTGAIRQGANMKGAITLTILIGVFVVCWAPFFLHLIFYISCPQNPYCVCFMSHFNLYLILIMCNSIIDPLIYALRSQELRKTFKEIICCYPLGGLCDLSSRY

Histamine H2 receptor, sequence (P25021 whole entry): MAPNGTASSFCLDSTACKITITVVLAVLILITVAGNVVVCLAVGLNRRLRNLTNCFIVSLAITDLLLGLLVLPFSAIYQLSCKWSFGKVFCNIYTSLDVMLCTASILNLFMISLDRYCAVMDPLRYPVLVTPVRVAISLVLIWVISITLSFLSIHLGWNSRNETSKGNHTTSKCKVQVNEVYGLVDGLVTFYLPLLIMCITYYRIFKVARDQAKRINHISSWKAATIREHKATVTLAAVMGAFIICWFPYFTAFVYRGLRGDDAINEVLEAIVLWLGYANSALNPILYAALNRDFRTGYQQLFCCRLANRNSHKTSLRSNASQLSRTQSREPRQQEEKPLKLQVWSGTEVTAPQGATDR
Beta-2 adrenergic receptor, sequence (P07550 whole entry): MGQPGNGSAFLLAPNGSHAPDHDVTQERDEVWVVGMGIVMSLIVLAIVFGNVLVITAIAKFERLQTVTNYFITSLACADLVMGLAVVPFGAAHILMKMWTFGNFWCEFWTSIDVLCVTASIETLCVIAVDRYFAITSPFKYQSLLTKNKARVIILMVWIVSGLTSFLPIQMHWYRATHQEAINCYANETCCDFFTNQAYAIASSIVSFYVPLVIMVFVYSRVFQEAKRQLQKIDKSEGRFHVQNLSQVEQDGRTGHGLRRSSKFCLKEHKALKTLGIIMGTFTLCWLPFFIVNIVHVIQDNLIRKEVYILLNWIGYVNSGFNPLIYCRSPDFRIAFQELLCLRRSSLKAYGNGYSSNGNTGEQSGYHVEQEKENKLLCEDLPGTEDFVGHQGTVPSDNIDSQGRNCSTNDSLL

SMILES	IC50 [1]	IC50 [2]	IC50 [3]	IC50 [4]	IC50 [5]	Ki [5]	IC50 (Histamine H2 receptor)	IC50 (Melanocortin receptor 4)	IC50 ([3]; read-out: IC50) [nM]	IC50 ([1]; read-out: IC50) [nM]	Ki [1] [nM]
c1ccc2c(c1)c1cccc3ccc4cccc2c4c31 [BENZO[E]PYRENE]	Not Active	Not Active	Not Active	Not Active	Not Active	Not Active	Not Active	Not Active			
CNCCc1ccccn1 [BETAHISTINE]	Not Active	Not Active	Not Active	Not Active	Not Active	Not Active	Not Active	Not Active			
CC(C)C(Br)C(=O)NC(N)=O (centres undefined) [BROMISOVALUM]	Not Active	Not Active	Not Active	Not Active	Not Active	Not Active	Not Active	Not Active			
CCCC1O[C@@H]2C[C@H]3[C@@H]4CCC5=CC(=O)C=C[C@]5(C)[C@H]4[C@@H](O)C[C@]3(C)[C@]2(C(=O)CO)O1 (some centres undefined) [BUDESONIDE]	Not Active	Not Active	Not Active	Not Active	Not Active	Not Active	Not Active	Not Active			
CC(NC(C)(C)C)C(=O)c1cccc(Cl)c1 (centres undefined) [BUPROPION]	Not Active	Not Active	Not Active	Not Active	Not Active	Not Active	Not Active	Not Active			
CN(Cc1ccc(C(C)(C)C)cc1)Cc1cccc2ccccc12 [BUTENAFINE]	Not Active	Not Active	Not Active	Not Active	Not Active	Not Active	Not Active	Not Active			
C[C@H](CS)C(=O)N1CCC[C@H]1C(=O)O [CAPTOPRIL]	Not Active	Not Active	Not Active	Not Active	Not Active	Not Active	Not Active	Not Active			
Cc1ccc(-c2cc(C(F)(F)F)nn2-c2ccc(S(N)(=O)=O)cc2)cc1 [CELECOXIB]	Not Active	Not Active	Not Active	Not Active	Not Active	Not Active	Not Active	Not Active			
O=C(O)CCCc1ccc(N(CCCl)CCCl)cc1 [CHLORAMBUCIL]	Not Active	Not Active		Not Active	Not Active	Not Active	Not Active	Not Active	9410		
C[C@H](CCC(=O)O)[C@H]1CC[C@H]2[C@@H]3[C@H](O)C[C@@H]4C[C@H](O)CC[C@]4(C)[C@H]3C[C@H](O)[C@]12C [CHOLIC ACID]	Not Active	Not Active	Not Active	Not Active	Not Active	Not Active	Not Active	Not Active			
Cc1cc(C2CCCCC2)n(O)c(=O)c1 [CICLOPIROX]	Not Active	Not Active	Not Active	Not Active	Not Active	Not Active	Not Active	Not Active			
CC1=C2C(=CO[C@H](C)[C@H]2C)C(O)=C(C(=O)O)C1=O [CITRININ]	Not Active	Not Active	Not Active	Not Active	Not Active	Not Active	Not Active	Not Active			
CC(C)(Oc1ccc(Cl)cc1)C(=O)O [CLOFIBRIC ACID]	Not Active	Not Active	Not Active	Not Active	Not Active	Not Active	Not Active	Not Active			
Cc1cc(C(C#N)c2ccc(Cl)cc2)c(Cl)cc1NC(=O)c1cc(I)cc(I)c1O (centres undefined) [CLOSANTEL]	Not Active	Not Active	Not Active	Not Active	Not Active	Not Active	Not Active	Not Active			
Cc1onc(-c2ccccc2Cl)c1C(=O)N[C@@H]1C(=O)N2[C@@H]1SC(C)(C)[C@@H]2C(=O)O [CLOXACILLIN]	Not Active	Not Active	Not Active	Not Active	Not Active	Not Active	Not Active	Not Active			
CC1CC(OC(=O)C(O)c2ccccc2)CC(C)(C)C1 (centres undefined) [CYCLANDELATE]	Not Active	Not Active	Not Active	Not Active	Not Active	Not Active	Not Active	Not Active			
Cc1c2oc3c(C)ccc(C(=O)N[C@@H]4C(=O)N[C@H](C(C)C)C(=O)N5CCC[C@H]5C(=O)N(C)CC(=O)N(C)[C@@H](C(C)C)C(=O)O[C@@H]4C)c3nc-2c(C(=O)N[C@@H]2C(=O)N[C@H](C(C)C)C(=O)N3CCC[C@H]3C(=O)N(C)CC(=O)N(C)[C@@H](C(C)C)C(=O)O[C@@H]2C)c(N)c1=O [DACTINOMYCIN] (I: T[dV]P[Sar][NMeV] / II: T[dV]P[Sar][NMeV]; ester I:1-I:C, II:1-II:C; linker I:N-II:N via Actinocin(1to9))	Not Active	Not Active	Not Active	Not Active	Not Active	Not Active	Not Active	Not Active			
Cc1c(O)c(=O)ccn1C [DEFERIPRONE]	Not Active	Not Active	Not Active	Not Active	Not Active	Not Active	Not Active	Not Active			
O=c1oc2ccccc2c(O)c1Cc1c(O)c2ccccc2oc1=O [DICUMAROL]	Not Active	Not Active		Not Active	Not Active	Not Active	Not Active	Not Active	4090		
C[C@H]1O[C@@H](O[C@H]2[C@@H](O)C[C@H](O[C@H]3[C@@H](O)C[C@H](O[C@H]4CC[C@@]5(C)[C@H](CC[C@@H]6[C@@H]5C[C@@H](O)[C@]5(C)[C@@H](C7=CC(=O)OC7)CC[C@]65O)C4)O[C@@H]3C)O[C@@H]2C)C[C@H](O)[C@@H]1O [DIGOXIN]	Not Active	Not Active	Not Active	Not Active	Not Active	Not Active	Not Active	Not Active			
CC(C)[C@@]1(NC(=O)[C@@H]2C[C@@H]3c4cccc5[nH]cc(c45)C[C@H]3N(C)C2)O[C@@]2(O)[C@@H]3CCCN3C(=O)[C@H](Cc3ccccc3)N2C1=O.CS(=O)(=O)O [DIHYDROERGOCRISTINE MESYLATE]		Not Active	Not Active	Not Active	Not Active	Not Active	Not Active	Not Active		1.62	0.656
CC(=O)O[C@@]12CO[C@@H]1C[C@H](O)[C@@]1(C)C(=O)[C@H](O)C3=C(C)[C@@H](OC(=O)[C@H](O)[C@@H](NC(=O)OC(C)(C)C)c4ccccc4)C[C@@](O)([C@@H](OC(=O)c4ccccc4)[C@H]21)C3(C)C.O.O.O [DOCETAXEL]	Not Active	Not Active	Not Active	Not Active	Not Active	Not Active	Not Active	Not Active			
C[C@H]1c2cccc(O)c2C(=O)C2=C(O)[C@]3(O)C(=O)C(C(N)=O)=C(O)[C@@H](N(C)C)[C@@H]3[C@@H](O)[C@@H]21.O [DOXYCYCLINE]	Not Active	Not Active	Not Active	Not Active	Not Active	Not Active	Not Active	Not Active			
O=C(CCCN1CC=C(n2c(=O)[nH]c3ccccc32)CC1)c1ccc(F)cc1 [DROPERIDOL]		Not Active	Not Active	Not Active	Not Active	Not Active	Not Active	Not Active		1.65	0.669
